This is an account of results in US20130209359A1, “Small Peptides Specifically Bind to Colorectal Cancers” (The Johns Hopkins University, priority 2007, published 2013).

Holding throughout (assay type): cell-based
Assay [1] deals with colon adenocarcinoma cell lines (Caco-2, HCT15, HCT116, LoVo, HT29). In words: Binding and overnight release/retention of 32P-labeled decapeptide. To be noted: two-hour incubation. How it is done: (§1) Assay of the binding of ^32P-labeled decapeptides to cell lines: Cell lines were grown in complete medium containing 10% bovine fetal serum (heat inactivated). In each well of a 96-well plate, 10,000 cells from various cell lines were grown overnight in complete medium. Ten μl of the labeled-peptide in 1×PBS and 90 μl of complete medium were added to each well and incubated at 37° C. at various times of up to two hours. The peptide-medium was removed and one μl added to 100 ul gel loading buffer and counted by scintillation counting for the probe control or run on a polyacrylamide-SDS gel (Biorad). The adherent cells were briefly and gently washed with complete medium three times and some wells were assayed immediately by adding 100 μl of gel loading buffer to each well and run on a gel or counted in a scintillation counter. Other wells had 100 μl complete medium added and incubated for a further time period. Samples were either counted in a liquid scintillation counter or run on polyacrylamide-SDS gels, exposed to x-ray film, and the film developed.

Assay [2] deals with HCT116 colon adenocarcinoma cells. In words: Binding of 32P-labeled decapeptides to cell lines. To be noted: two-hour incubation, washes; average. On the procedure: as §1
Assay [3] deals with HeLa S3 cervical cancer cells. In words: Binding of 32P-labeled decapeptides to cell lines. To be noted: two-hour incubation, washes; average. How it is done: as §1
The subject of assay [4] is eleven nonbinding cell lines. In words: Binding of 32P-labeled decapeptides to cell lines. On the procedure: as §1
The test system of assay [5] is human embryonic kidney cell line 293H. In words: Binding of 32P-labeled decapeptides to cell lines. To be noted: two-hour incubation, washes. How it is done:
as §1

Assay [6] deals with HT1080 fibrosarcoma cells. In words: Binding of 32P-labeled decapeptides to cell lines. To be noted: two-hour incubation, washes. On the procedure: as §1
Assay [7] concerns Caco-2 colon adenocarcinoma cell line. In words: Binding of 32P-labeled decapeptides to cell lines. On the procedure: as §1
Setting [8] is: two hours incubation, three wash steps, overnight incubation in medium.

Take “GSRRASVASA (synthetic or recombinant sequence) [MA5]”: the “retention of radioactivity (in words)” value in assay [1] (five of sixteen cell lines) is listed as “very strong retention of radioactivity”. Moreover, the “initially retained radioactive counts retained by cells” value in assay [1] (washes, overnight incubation) is listed as “approximately 12%”. In addition, the “32P counts per minute (cpm) remaining bound” value is given as 131,998 cpm per 10,000 cells in assay [2]; 534 cpm per 10,000 in assay [3]; 429 cpm per 10,000 cells in assay [5]; 367 cpm in assay [6]; 298,639 cpm per 10,000 cells in assay [7] (two-hour incubation, washes with complete medium, average of triplicate wells). Also, the “average cpm of the eleven nonbinding cell lines” value in assay [4] (two-hour incubation, 10,000 cells, washed three times) is 365 cpm. In addition, the “mean cpm values of blank wells and nonbinding cell lines” value in assay [4] (two-hour incubation, washes) is “less than 550 cpm”. Further, the “retained counts per hour per cell” value in assay [7] (after overnight incubation) was 348 counts per hour, per cell. The “retained counts extrapolated per cell per day” value in assay [7] (after overnight incubation, extrapolated) is reported as “over 8,300 counts per cell per day”. Besides, the “percentage of the total radioactive counts present in the incubation well retained by cells” value in assay [7] (after two-hour incubation) is “approximately 18%”. The “time to plateau of 32P-peptide release into medium” value in assay [7] (after washing) is no more than 24 h. For the same sequence, the “retained counts per cell extrapolated over a potential 2-week exposure period” value in assay [7] (extrapolated over 2 weeks) was “over 87,000 counts per cell”. In addition, the “time by which the majority of total released counts are released” value in assay [7] (release after washing over a 48-hour time period) is “released by nine hours of incubation”. In addition, the “cpm retained by cells after overnight incubation” value in assay [7] (triplicate wells containing 10,000 cells each, three washes, overnight at 37 C) is 58,305 cpm. Also, the “relative binding among decapeptides (in words)” value in assay [7] (two hour incubation) is “most efficient binding decapeptide”. Moreover, in assay [7] (two hour incubation, wash, immediate determination of retained radioactivity), the “radioactive dose transferred per cell” value is listed as “over 29 counts per minute per cell”. Moreover, the “originally retained 32P isotope released” value in assay [7] (setting [8]) worked out at 88%. The “originally retained 32P isotope retained by cells” value in assay [7] (setting [8]) came out at 12%. Besides, the “retention difference between decapeptide variants” value in assay [7] (two hours' incubation, variant MA2 vs. variant MA5) is 70 fold.
